Reference: patent US8207177B2, “Inhibitors of E1 activating enzymes” (Millennium Pharmaceuticals, Inc., priority 2006, dated 2012)

Molecular target: T1, recombinant human NAE enzyme (Homo sapiens, UniProt Q8TBC4)
T1 construct: His (N); made in house; host or cells: Sf9 insect cells (baculovirus, Bac-to-Bac), purified on Ni-NTA
T1 sequence (Q8TBC4 1-463): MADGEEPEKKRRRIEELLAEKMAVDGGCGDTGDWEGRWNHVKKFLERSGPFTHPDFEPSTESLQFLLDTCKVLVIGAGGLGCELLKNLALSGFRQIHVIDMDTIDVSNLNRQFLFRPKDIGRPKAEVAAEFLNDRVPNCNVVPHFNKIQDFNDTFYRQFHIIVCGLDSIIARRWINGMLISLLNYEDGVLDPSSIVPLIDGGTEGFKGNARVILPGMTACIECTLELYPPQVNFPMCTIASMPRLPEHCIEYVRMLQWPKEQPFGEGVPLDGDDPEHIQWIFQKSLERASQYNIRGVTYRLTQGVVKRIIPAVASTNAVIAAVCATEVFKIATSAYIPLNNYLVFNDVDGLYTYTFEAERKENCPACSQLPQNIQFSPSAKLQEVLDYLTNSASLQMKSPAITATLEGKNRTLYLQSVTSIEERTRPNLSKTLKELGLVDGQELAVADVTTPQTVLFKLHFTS
T1 sequence (Q13564 1-534 partner): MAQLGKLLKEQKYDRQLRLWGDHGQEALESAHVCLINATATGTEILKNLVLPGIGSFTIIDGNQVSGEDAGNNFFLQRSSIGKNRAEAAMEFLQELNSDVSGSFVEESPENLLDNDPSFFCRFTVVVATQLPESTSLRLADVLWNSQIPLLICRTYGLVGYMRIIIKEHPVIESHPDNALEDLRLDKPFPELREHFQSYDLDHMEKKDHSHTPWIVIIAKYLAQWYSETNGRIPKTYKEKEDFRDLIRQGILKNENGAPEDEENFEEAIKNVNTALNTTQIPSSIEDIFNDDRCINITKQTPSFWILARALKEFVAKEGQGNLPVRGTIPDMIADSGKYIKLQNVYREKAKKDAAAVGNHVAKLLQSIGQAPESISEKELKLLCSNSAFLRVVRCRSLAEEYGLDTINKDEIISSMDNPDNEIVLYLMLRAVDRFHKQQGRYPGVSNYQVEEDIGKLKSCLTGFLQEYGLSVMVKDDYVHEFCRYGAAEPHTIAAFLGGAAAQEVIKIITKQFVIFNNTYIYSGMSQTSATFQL
Test: Nedd8-Activating Enzyme (NAE) HTRF Assay
Type: biochemical
Details: threshold statement: less than or equal to 100 nM; 20 μM ATP, 90 minutes at 24° C.
Experimental: Following manufacturer instructions, baculoviruses were generated with the Bac-to-Bac Expression System (Invitrogen) for the following proteins: untagged NAEα (APPBP1; NP_003896.1), N-terminally His-tagged NAEβ (UBE1C; NP_003959.3), untagged SAEα (SAE1; NP_005491.1), N-terminally His-tagged SAEβ (UBA2; NP_005490.1), N-terminally His-tagged murine UAE (UBE1X; NP_033483). NAEα/His-NAEβ and SAEα/His-SAEβ complexes were generated by co-infection of Sf9 cells, which were harvested after 48 hours. His-mUAE was generated by single infection of Sf9 cells and harvested after 72 hours. Expressed proteins were purified by affinity chromatography (Ni—NTA agarose, Qiagen) using standard buffers. Ubc12 (UBE2M; NP_003960.1), Ubc9 (UBE2I; NP_003336.1), Ubc2 (UBE2A; NP_003327.2) were subcloned into pGEX (Pharmacia) and expressed as N-terminally GST tagged fusion proteins in E. coli. Expressed proteins were purified by conventional affinity chromatography using standard buffers. Nedd8 (NP_006147), Sumo-1 (NP_003343) and Ubiquitin (with optimized codons) were subcloned into pFLAG-2 (Sigma) and expressed as N-terminally Flag tagged fusion proteins in E. coli. Expressed proteins were purified by conventional chromatography using standard buffers. Nedd8-Activating Enzyme (NAE) HTRF Assay. The NAE enzymatic reaction totaled 50 μL and contained 50 mM HEPES (pH 7.5), 0.05% BSA, 5 mM MgCl2, 20 μM ATP, 250 μM GSH, 0.01 μM Ubc12-GST, 0.075 μM Nedd8-Flag and 0.28 nM recombinant human NAE enzyme. The enzymatic reaction mixture, with and without compound inhibitor, was incubated at 24° C. for 90 minutes in a 384-well plate before termination with 25 μL of Stop/Detection buffer (0.1M HEPES pH 7.5, 0.05% Tween20, 20 mM EDTA, 410 mM KF, 0.53 nM Europium-Cryptate labeled monoclonal anti-FLAG M2 antibody (CisBio International) and 8.125 μg/mL PHYCOLINK goat anti-GST allophycocyanin (XL-APC) antibody (Prozyme)). After incubation for 3 hours at 24° C., quantification of the FRET was performed on the Analyst™ HT 96.384 (Molecular Devices).

| Compound | IC50 [nM] |
| --- | --- |
| NS(=O)(=O)OC[C@@H]1C[C@@H](n2ccc3c(Nc4ccccc4)ncnc32)C[C@@H]1O [Compound I-39, [(1S,2S,4R)-4-(4-anilino-7H-pyrrolo[2,3-d]pyrimidin-7-yl)-2-hydroxycyclopentyl]methyl sulfamate] | ≤ 100 |
| C[C@@H](c1ccccc1)N(C)c1ncnc2c1ccn2[C@@H]1C[C@@H](COS(N)(=O)=O)[C@@H](O)C1 [Compound I-3, [(1S,2S,4R)-2-hydroxy-4-(4-{methyl[(1S)-1-phenylethyl]amino}-7H-pyrrolo-[2,3-d]pyrimidin-7-yl)cyclopentyl]methyl sulfamate] | ≤ 100 |
| CCO[C@H]1Cc2ccccc2[C@H]1Nc1ncnc2c1ccn2[C@@H]1C[C@@H](COS(N)(=O)=O)[C@@H](O)C1 [Compound I-70, [(1S,2S,4R)-4-(4-{[(1R,2S)-2-ethoxy-2,3-dihydro-1H-inden-1-yl]amino}-7H-pyrrolo[2,3-d]pyrimidin-7-yl)-2-hydroxycyclopentyl]methyl sulfamate] | ≤ 100 |
| NS(=O)(=O)OC[C@@H]1C[C@@H](n2ccc3c(N[C@@H]4CCc5c(Cl)cccc54)ncnc32)C[C@@H]1O [Compound I-63, [(1S,2S,4R)-4-(4-{[(1R)-4-chloro-2,3-dihydro-1H-inden-1-yl]amino}-7H-pyrrolo[2,3-d]pyrimidin-7-yl)-2-hydroxycyclopentyl]methyl sulfamate] | ≤ 100 |
| Cc1cc(Cl)ccc1CNc1ncnc2c1ccn2[C@@H]1C[C@@H](COS(N)(=O)=O)[C@@H](O)C1 [Compound I-48, ((1S,2S,4R)-4-{4-[(4-chloro-2-methylbenzyl)amino]-7H-pyrrolo[2,3-d]pyrimidin-7-yl}-2-hydroxycyclopentyl)methyl sulfamate] | ≤ 100 |
| NS(=O)(=O)OC[C@@H]1C[C@@H](n2ccc3c(NCc4cccc(Cl)c4)ncnc32)C[C@@H]1O [Compound I-51, ((1S,2S,4R)-4-{4-[(3-chlorobenzyl)amino]-7H-pyrrolo[2,3-d]pyrimidin-7-yl}-2-hydroxycyclopentyl)methyl sulfamate] | ≤ 100 |
| NS(=O)(=O)OC[C@@H]1C[C@@H](n2ccc3c(NCc4cccc5ccccc45)ncnc32)C[C@@H]1O [Compound I-38, ((1S,2S,4R)-2-hydroxy-4-{4-[(1-naphthylmethyl)amino]-7H-pyrrolo[2,3-d]-pyrimidin-7-yl}cyclopentyl)methyl sulfamate] | ≤ 100 |
| COC[C@@H]1Cc2ccccc2[C@@H]1Nc1ncnc2c1ccn2[C@@H]1C[C@@H](COS(N)(=O)=O)[C@@H](O)C1 [Compound I-79, [(1S,2S,4R)-2-hydroxy-4-(4-{[(1R,2R)-2-(methoxymethyl)-2,3-dihydro-1H-inden-1-yl]amino}-7H-pyrrolo[2,3-d]pyrimidin-7-yl)cyclopentyl]methyl sulfamate] | ≤ 100 |
| NS(=O)(=O)OC[C@@H]1C[C@@H](n2ccc3c(NCc4ccc(Cl)cc4Cl)ncnc32)C[C@@H]1O [Compound I-19, ((1S,2S,4R)-4-{4-[(2,4-dichlorobenzyl)amino]-7H-pyrrolo[2,3-d]pyrimidin-7-yl}-2-hydroxycyclopentyl)methyl sulfamate] | ≤ 100 |
| NS(=O)(=O)OC[C@@H]1C[C@@H](n2ccc3c(N[C@H]4CCc5cc(F)ccc54)ncnc32)C[C@@H]1O [Compound I-36, [(1S,2S,4R)-4-(4-{[(1S)-5-fluoro-2,3-dihydro-1H-inden-1-yl]amino}-7H-pyrrolo-[2,3-d]pyrimidin-7-yl)-2-hydroxycyclopentyl]methyl sulfamate] | ≤ 100 |
| CC(C)O[C@H]1Cc2ccccc2[C@H]1Nc1ncnc2c1ccn2[C@@H]1C[C@@H](COS(N)(=O)=O)[C@@H](O)C1 [Compound I-54, [(1S,2S,4R)-2-hydroxy-4-(4-{[(1R,2S)-2-isopropoxy-2,3-dihydro-1H-inden-1-yl]-amino}-7H-pyrrolo[2,3-d]pyrimidin-7-yl)cyclopentyl]methyl sulfamate] | ≤ 100 |
| NS(=O)(=O)OC1CC(n2ccc3c(N[C@H]4CCc5ccccc54)ncnc32)CC1O (stereo in doubt) [Compound I-78, (1R,2S,4S)-4-{4-[(1S)-2,3-dihydro-1H-inden-1-ylamino]-7H-pyrrolo[2,3-d]pyrimidin-7-yl}-2-hydroxycyclopentyl sulfamate] | ≤ 100 |
| C[C@@H]1Cc2ccccc2[C@@H]1Nc1ncnc2c1ccn2[C@@H]1C[C@@H](COS(N)(=O)=O)[C@@H](O)C1 [Compound I-81, [(1S,2S,4R)-2-hydroxy-4-(4-{[(1R,2R)-2-methyl-2,3-dihydro-1H-inden-1-yl]amino)-7H-pyrrolo[2,3-d]pyrimidin-7-yl)cyclopentyl]methyl sulfamate] | ≤ 100 |
| NS(=O)(=O)OC[C@@H]1C[C@@H](n2ccc3c(NCc4ccc(Cl)cc4)ncnc32)C[C@@H]1O [Compound I-45, ((1S,2S,4R)-4-{4-[(4-chlorobenzyl)amino]-7H-pyrrolo[2,3-d]pyrimidin-7-yl}-2-hydroxycyclopentyl)methyl sulfamate] | ≤ 100 |
| COc1ccccc1CNc1ncnc2c1ccn2[C@@H]1C[C@@H](COS(N)(=O)=O)[C@@H](O)C1 [Compound I-43, ((1S,2S,4R)-2-hydroxy-4-{4-[(2-methoxybenzyl)amino]-7H-pyrrolo[2,3-d]-pyrimidin-7-yl)cyclopentyl)methyl sulfamate] | ≤ 100 |
| Cc1ncnc2c1ccn2[C@@H]1C[C@@H](COS(N)(=O)=O)[C@@H](O)C1 [Compound I-46, [(1S,2S,4R)-2-hydroxy-4-(4-methyl-7H-pyrrolo[2,3-d]pyrimidin-7-yl)cyclopentyl]methyl sulfamate] | ≤ 100 |
| NS(=O)(=O)OC[C@@H]1C[C@@H](n2ccc3c(N[C@H]4CCc5c(Cl)cccc54)ncnc32)C[C@@H]1O [Compound I-64, [(1S,2S,4R)-4-(4-{[(1S)-4-chloro-2,3-dihydro-1H-inden-1-yl]amino}-7H-pyrrolo[2,3-d]pyrimidin-7-yl)-2-hydroxycyclopentyl]methyl sulfamate] | ≤ 100 |
| C#Cc1cn([C@@H]2C[C@@H](COS(N)(=O)=O)[C@@H](O)C2)c2ncnc(C)c12 [Compound I-44, [(1S,2S,4R)-4-(5-ethynyl-4-methyl-7H-pyrrolo[2,3-d]pyrimidin-7-yl)-2-hydroxycyclopentyl]methyl sulfamate] | ≤ 100 |
| CO[C@H]1Cc2ccccc2[C@H]1Nc1ncnc2c1c(F)cn2[C@@H]1C[C@@H](COS(N)(=O)=O)[C@@H](O)C1 [Compound I-69, [(1S,2S,4R)-4-(5-fluoro-4-{[(1R,2S)-2-methoxy-2,3-dihydro-1H-inden-1-yl]amino}-7H-pyrrolo[2,3-d]pyrimidin-7-yl)-2-hydroxycyclopentyl]methyl sulfamate] | ≤ 100 |
| NS(=O)(=O)OC[C@@H]1C[C@@H](n2ccc3c(NCc4ccc5c(c4)OCO5)ncnc32)C[C@@H]1O [Compound I-26, ((1S,2S,4R)-4-{4-[(1,3-benzodioxol-5-ylmethyl)amino]-7H-pyrrolo[2,3-d]-pyrimidin-7-yl}-2-hydroxycyclopentyl)methyl sulfamate] | ≤ 100 |
